# Reference: patent US10278965B2, “Method of detecting cancer stem cell, method of screening cancer stem cell, and method of inhibiting cancer stem cell” (CANON KABUSHIKI KAISHA, priority 2012, dated 2019)
# Legend:
# [1] = system: Human chronic myelocytic leukemia cells, K562, ALDH (+) fraction (cancer stem cells); assay: Cancer stem-cell selective inhibitory action against chronic myelocytic leukemia cells, ALDH (+) fraction; format: cell-based; settings: 24 hours
# Procedure: Human chronic myelocytic leukemia cells, K562, were pre-cultured in RPMI1640 medium containing 10% FBS at 37° C. in a 5% CO2 ambient. Then, a fraction containing 80% or more of cancer stem cells was extracted by use of a cancer stem cell marker, ALDEFLUOR reagent (manufactured by VERITAS Corporation) and FACSAria flow cytometry (manufactured by Nippon Becton, Dickinson and Company). […] The cultured cells were analyzed for viable cell count according to CellTiter-Glo Luminescent Cell Viability Assay (manufactured by Promega KK.). […] Note that hereinafter, an ALDEFLUOR reagent positive fraction (deemed as cancer stem cells) is represented by ALDH (+), whereas an ALDEFLUOR reagent negative fraction (not deemed as cancer stem cells) is represented by ALDH (−), in some cases.
# Further, the growth suppressive effect of cancer stem cells was evaluated based on the following criteria. Note that the growth rate in Examples is a value obtained by dividing viable cell count after culture by the number of cells at the initiation time of culture.
# [2] = system: Human pancreas cancer cells, KLM-1; assay: Cancer cell inhibitory (growth suppressive) action against pancreatic cancer cells, CellTiter-Glo viable cell count; settings: KLM-1, 10 μg/mL, 24 hours
# Procedure: Human pancreas cancer cells, KLM-1, were pre-cultured in RPMI1640 medium containing 10% FBS at 37° C. in a 5% CO2 ambient. Thereafter, 4,000 cells were seeded per well of a 96-well plate and further cultured for 24 hours. […] The cultured cells were analyzed for viable cell count according to CellTiter-Glo Luminescent Cell Viability Assay (manufactured by Promega KK.).
# Evaluation of cancer cell inhibition against the pancreatic cancer cells (KLM-1) (growth suppression) was made based on the following criteria. Note that the growth rate used in Examples refers to the rate (expressed by percentage) of viable cell count after culture relative to the number of cells at the initiation of cell culture.
# [3] = system: Prostatic cancer cells, PC-3; assay: Cancer cell inhibitory (growth suppressive) action against prostatic cancer cells, CellTiter-Glo viable cell count; format: cell-based; settings: PC-3, 10 μg/mL, 24 hours
# Procedure: Prostatic cancer cells, PC-3, were pre-cultured in RPMI1640 medium containing 10% FBS at 37° C. in a 5% CO2 ambient. Thereafter, 4,000 cells were seeded per well of a 96-well plate and further cultured for 24 hours. Subsequently, Compound (1) was added to the medium so as to obtain a final concentration of 10 μg/mL and cultured at 37° C. for 24 hours in a 5% CO2 ambient. The cultured cells were analyzed for viable cell count according to Cell Titer-Glo Luminescent Cell Viability Assay (manufactured by Promega KK.).
# Viable cell count was analyzed in the same manner as in Experimental Example 24 except that Compound (1) of Experimental Example 24 was changed to each compound shown in Table 2.
# Viable cell count was analyzed in the same manner as in Experimental Example 24 except that Compound (1) of Experimental Example 24 was changed to each of Comparative compounds 1 to 4, to obtain growth rates.
# Note that the growth rate used in Examples refers to the rate (expressed by percentage) of viable cell count after culture relative to the number of cells at the initiation of cell culture. Evaluation criteria are the same as in the above experiments.
# [4] = Measurement of fluorescent property of compound; format: physicochemical; settings: 5 μM DMSO solution
# Procedure: The excitation wavelength and fluorescence wavelength of the compound were measured by a FL4500 spectrofluorometric measuring machine manufactured by Hitachi High-Technologies Corporation.
# K562 ALDH (+) cells = assay: Cancer stem-cell selective staining, ALDH (+) cells; format: cell-based, Human; settings: cells of Experimental Examples 39, 42 and 45 (1 μg/ml, cultured for 24 hours), fluorescent microscope
# Procedure: (§1) The cells cultured for 24 hours in each of Experimental Examples 39, 42 and 45 were subjected to nuclear staining with Hoechest33342 (manufactured by Dojindo Laboratories) and a fluorescent image observed under AXIOVERT200M inverted fluorescent microscope (manufactured by Carl Zeiss) was photographed.
# K562 ALDH (−) cells = assay: Cancer stem-cell selective staining, ALDH (−) cells; format: cell-based, Human; settings: cells of Experimental Examples 39, 42 and 45 (1 μg/ml, cultured for 24 hours), fluorescent microscope
# Procedure: as §1
# [5] = system: KLM1-KOr cells, ALDH (+) fraction, transplanted to zebra young fish; assay: Cancer metastasis suppressive effect in cancer cell metastatic foci (region within 300 to 450 μm from a transplanted tumor); format: in vivo; settings: 72 hours later, region within 300 to 450 μm from transplanted tumor; for Inhibition rate 100×(1−F1/F0), metastatic foci: administered to yolk sac 24 hours after transplantation (Compound (26) 745 μmol/KgBW)
# Procedure: From cell strain […], in which KLM1 cells have fluorescent protein Kusabira-Orange constantly expressed, a fraction (ALDH (+)) containing 80% or more of cancer stem cells was extracted with ALDEFLUOR reagent (manufactured by VERITAS Corporation) and FACSAria flow cytometry (manufactured by Nippon Becton, Dickinson and Company). The extracted KLM1-KOr cells were transplanted to zebra young fish (MieKomachi lineage, 2 days after fertilization) and the fish were raised in a 32° C. environment. Furthermore, 24 hours after transplantation, Compound (26) (745 μmol/KgBW) was administered to yolk sac.
# 72 hours later, cells transplanted to the zebra young fish were observed under MZ16F fluorescent stereoscopic microscope (manufactured by Leica Microsystems) and a fluorescent image of the region within 300 to 450 μm from a transplanted tumor was photographed and then fluorescent intensity was quantified.
# As a reference, the fluorescent intensity of cells, which were cultured in the same operation method as above in a medium containing a 0.1% DMSO solution in place of Compound (26), was used.
# Fluorescent images were photographed in the same manner as in Experimental Example 26 except that Imatinib and Dasatinib were respectively used in place of the compound (26) in Experimental Example 75.
# The inhibition rate herein was obtained according to the expression: 100×(1−F1/F0), where the fluorescent intensity of cells when a test substance was added is represented by F1, and the fluorescent intensity of cells when a reference substance (DMSO) was added is represented by F0.
SMILES,"ALDH(+) Superiority evaluation ([1]; K562, 0.05 μg/ml)","ALDH(+)/ALDH(−) ([1]; K562, 0.05 μg/ml)","ALDH(+) Superiority evaluation ([1]; K562, 0.5 μg/ml)","ALDH(+)/ALDH(−) ([1]; K562, 0.5 μg/ml)","ALDH(+) Superiority evaluation ([1]; K562, 1 μg/ml)","ALDH(+)/ALDH(−) ([1]; K562, 1 μg/ml)",Cancer cell growth rate (%) [2] [%],Evaluation (cancer cell growth rate) [2],Cancer cell growth rate (%) [3] [%],Evaluation (cancer cell growth rate) [3],Excitation wavelength λex [4] [nm],Fluorescence wavelength λem [4] [nm],ratio of ALDH (+) cells stained (K562 ALDH (+) cells) [%],ratio of ALDH (−) cells stained (K562 ALDH (−) cells) [%],"Inhibition rate 100×(1−F1/F0), metastatic foci [5]","Evaluation (inhibition rate, metastatic foci) [5]","ALDH(+) Superiority evaluation ([1]; K562, 10 μg/ml)","ALDH(+)/ALDH(−) ([1]; K562, 10 μg/ml)"
CCN1/C(=C\C=C\C2=[N+](CC)c3ccccc3C23CCCCC3)C2(CCCCC2)c2ccccc21 [Compound 24],B (The value of the growth rate of ALDH (+)/the growth rate of ALDH (−) is 0.8 or more and less than 0.95),0.81,A (The value of the growth rate of ALDH (+)/the growth rate of ALDH (−) is less than 0.8),0.61,A (The value of the growth rate of ALDH (+)/the growth rate of ALDH (−) is less than 0.8),0.48,6.5,A (Cancer cell growth rate is less than 20%),10.0,A (Cancer cell growth rate is less than 20%),496,569,81.2,28.6,–,–,–,–
CN1\C(=C/C=C/C=C/C2=[N+](C)c3ccc4ccccc4c3C2(C)C)C(C)(C)c2c1ccc1ccccc21 [Compound 26],–,–,–,–,–,–,8.6,A (Cancer cell growth rate is less than 20%),–,–,684,710,–,–,80,A (Inhibition rate is 70 or more),–,–
CCN1C=C/C(=C/C=C/c2oc3ccccc3[n+]2CC)c2ccccc21 [Compound 35],A (The value of the growth rate of ALDH (+)/the growth rate of ALDH (−) is less than 0.8),0.77,A (The value of the growth rate of ALDH (+)/the growth rate of ALDH (−) is less than 0.8),0.66,B (The value of the growth rate of ALDH (+)/the growth rate of ALDH (−) is 0.8 or more and less than 0.95),0.90,29.7,B (Cancer cell growth rate is 20% or more and less than 50%),–,–,571,620,82.5,21.4,–,–,A (The value of the growth rate of ALDH (+)/the growth rate of ALDH (−) is less than 0.8),0.69
Cc1nc(Nc2ncc(C(=O)Nc3c(C)cccc3Cl)s2)cc(N2CCN(CCO)CC2)n1 [Dasatinib],–,–,–,–,–,–,–,–,–,–,–,–,–,–,36,C (Inhibition rate is less than 50),–,–
